Data set [1] can be described thus: Molar enthalpy of transition or fusion. Conditions: DSC.
The conditions of data set [2]: for mass density: 293 K, 101.33 kPa, Flotation in CCl4 and Heptane; for Triple point temperature: DTA.

SMILES strings stand for the structures. Numbers after ± are expanded uncertainties.

The record followed here is the NIST ThermoML archive (doi:10.1016/j.jct.2010.11.011).

On to `CCCCCCCCCC(=O)[O-].[Li+]` [lithium decanoate], for which, in data set [1] (Crystal 1), the “Molar enthalpy of transition or fusion” value was determined as 5.92 ± 1.43 kcal/mol. Also, in data set [2] (Crystal 2), the mass density (usually the mass of a sample divided by its volume) stood at 1080 ± 40 kg/m3. For the same compound, the Triple point temperature in data set [2] (Crystal 1) worked out at 516.6 ± 1.3 K.
In the case of `CCCCCCCCCCCC(=O)[O-].[Li+]` [lithium dodecanoate], the “Molar enthalpy of transition or fusion” value in data set [1] (Crystal 1) was determined as 6.26 ± 1.36 kcal/mol. The mass density in data set [2] (Crystal 2) was determined as 1060 ± 40 kg/m3. The Triple point temperature in data set [2] (Crystal 1) was determined as 501.95 ± 1.8 K.
With `CCCCCCCCCCCCCCCCC(=O)[O-].[Li+]` [lithium heptadecanoate], the “Molar enthalpy of transition or fusion” value in data set [1] (Crystal 1) was 3.2 ± 0.502 kcal/mol. Also, the mass density in data set [2] (Crystal 2) was determined as 1090 ± 40 kg/m3. In addition, the Triple point temperature in data set [2] (Crystal 1) stood at 498.85 ± 0.59 K.
For the compound `CCCCCCCCCCCCCCCC(=O)[O-].[Li+]` [lithium hexadecanoate], the “Molar enthalpy of transition or fusion” value in data set [1] (Crystal 1) was 3.77 ± 1.2 kcal/mol. The mass density in data set [2] (Crystal 2) is on record as 1050 ± 40 kg/m3. In addition, the Triple point temperature in data set [2] (Crystal 1) worked out at 500.89 ± 2.8 K.
Regarding `CCCCCCCCCCCCCCCCCCC(=O)[O-].[Li+]` [lithium nonadecanoate], the “Molar enthalpy of transition or fusion” value in data set [1] (Crystal 1) was 3.69 ± 1.17 kcal/mol. Besides, the mass density in data set [2] (Crystal 2) amounted to 1080 ± 40 kg/m3. In data set [2] (Crystal 1), the Triple point temperature was 496.35 ± 1.2 K.
With `CCCCCCCCC(=O)[O-].[Li+]` [lithium nonanoate], the “Molar enthalpy of transition or fusion” value in data set [1] (Crystal 1) is 5.4 ± 0.406 kcal/mol. Besides, the mass density in data set [2] (Crystal 2) amounted to 1120 ± 50 kg/m3. Moreover, the Triple point temperature in data set [2] (Crystal 1) is recorded as 524.1 ± 1.2 K.
Take `CCCCCCCCCCCCCCCCCC(=O)[O-].[Li+]` [lithium octadecanoate]: the “Molar enthalpy of transition or fusion” value in data set [1] (Crystal 1) was 4.05 ± 0.311 kcal/mol. In addition, the mass density in data set [2] (Crystal 2) came out at 1040 ± 40 kg/m3. Besides, the Triple point temperature in data set [2] (Crystal 1) is listed as 499.85 ± 0.59 K.
On to `CCCCCCCC(=O)[O-].[Li+]` [lithium octanoate], for which the “Molar enthalpy of transition or fusion” value in data set [1] (Crystal) is 5.6 ± 0.227 kcal/mol. Moreover, in data set [2] (Crystal), the mass density is recorded as 1080 ± 40 kg/m3 and the Triple point temperature worked out at 536.8 ± 0.7 K.
Consider `CCCCCCCCCCCCCCC(=O)[O-].[Li+]` [lithium pentadecanoate], for which the “Molar enthalpy of transition or fusion” value in data set [1] (Crystal 1) was determined as 3.86 ± 0.263 kcal/mol. Further, in data set [2] (Crystal 2), the mass density worked out at 1100 ± 40 kg/m3. Also, the Triple point temperature in data set [2] (Crystal 1) amounted to 501.25 ± 0.39 K.
Take `CCCCCCCCCCCCCC(=O)[O-].[Li+]` [lithium tetradecanoate]: the “Molar enthalpy of transition or fusion” value in data set [1] (Crystal 1) worked out at 6.06 ± 8.6 kcal/mol. The mass density in data set [2] (Crystal 2) is given as 1050 ± 40 kg/m3. Moreover, the Triple point temperature in data set [2] (Crystal 1) amounted to 502.4 ± 1 K.
The matching figures for `CCCCCCCCCCCCC(=O)[O-].[Li+]` [lithium tridecanoate]: 3.32 ± 0.55 kcal/mol, 1100 ± 40 kg/m3 and 504.27 ± 0.4 K.
`CCCCCCCCCCC(=O)[O-].[Li+]` [lithium undecanoate]: the “Molar enthalpy of transition or fusion” value in data set [1] (Crystal) is 5.85 ± 0.203 kcal/mol. In addition, the mass density in data set [2] (Crystal 2) was 1120 ± 50 kg/m3. Also, the Triple point temperature in data set [2] (Crystal) is given as 507.27 ± 3.1 K.
